{
  "source": "ChEMBL document CHEMBL4041476",
  "about": "“Design, selective alkylation and X-ray crystal structure determination of dihydro-indolyl-1,2,4-triazole-3-thione and its 3-benzylsulfanyl analogue as potent anticancer agents” (Eur J Med Chem, 2017)",
  "key": {"HepG2": {"system": "HepG2", "assay": "Antiproliferative activity against human HepG2 cells after 48 hrs by SRB assay", "assay_type": "functional, cell-based", "conditions": "HepG2, 48 h"}, "MCF7": {"system": "MCF7", "assay": "Antiproliferative activity against human MCF7 cells after 48 hrs by SRB assay", "assay_type": "functional, cell-based", "conditions": "MCF7, 48 h"}},
  "data": [
    {"smiles": "c1ccc(CSc2nc(-c3cc4ccccc4[nH]3)n(Cc3ccccc3)n2)cc1", "values": [
      {"measurement": "IC50", "setting": "HepG2", "value": 16.3, "unit": "µg/mL"},
      {"measurement": "IC50", "setting": "MCF7", "value": 14.8, "unit": "µg/mL"}
    ]},
    {"smiles": "CC(=O)N[C@@H]1[C@@H](OC(C)=O)[C@H](OC(C)=O)[C@@H](COC(C)=O)O[C@H]1n1nc(-c2cc3ccccc3[nH]2)nc1SCc1ccccc1", "values": [
      {"measurement": "IC50", "setting": "HepG2", "value": "> 100", "unit": "µg/mL"},
      {"measurement": "IC50", "setting": "MCF7", "value": "> 100", "unit": "µg/mL"}
    ]},
    {"smiles": "c1ccc(CSc2nc(-c3cc4ccccc4[nH]3)nn2Cc2ccccc2)cc1", "values": [
      {"measurement": "IC50", "setting": "HepG2", "value": 17.9, "unit": "µg/mL"},
      {"measurement": "IC50", "setting": "MCF7", "value": 10.8, "unit": "µg/mL"}
    ]},
    {"smiles": "S=c1nc(-c2cc3ccccc3[nH]2)[nH][nH]1", "values": [
      {"measurement": "IC50", "setting": "HepG2", "value": 15.9, "unit": "µg/mL"},
      {"measurement": "IC50", "setting": "MCF7", "value": 13.8, "unit": "µg/mL"}
    ]},
    {"smiles": "CC(=O)OC[C@H]1O[C@@H](n2nc(SCc3ccccc3)nc2-c2cc3ccccc3[nH]2)[C@H](OC(C)=O)[C@@H](OC(C)=O)[C@@H]1OC(C)=O", "values": [
      {"measurement": "IC50", "setting": "HepG2", "value": 16.1, "unit": "µg/mL"},
      {"measurement": "IC50", "setting": "MCF7", "value": 16, "unit": "µg/mL"}
    ]},
    {"smiles": "COc1cccc2c1C(=O)c1c(O)c3c(c(O)c1C2=O)C[C@@](O)(C(=O)CO)C[C@@H]3O[C@H]1C[C@H](N)[C@H](O)[C@H](C)O1", "note": "[DOXORUBICIN]", "values": [
      {"measurement": "IC50", "setting": "HepG2", "value": 4, "unit": "µg/mL"},
      {"measurement": "IC50", "setting": "MCF7", "value": 4, "unit": "µg/mL"}
    ]},
    {"smiles": "OCCn1nc(-c2cc3ccccc3[nH]2)nc1SCc1ccccc1", "values": [
      {"measurement": "IC50", "setting": "HepG2", "value": 12.1, "unit": "µg/mL"},
      {"measurement": "IC50", "setting": "MCF7", "value": 14.6, "unit": "µg/mL"}
    ]},
    {"smiles": "CC(=O)N[C@@H]1[C@@H](OC(C)=O)[C@H](OC(C)=O)[C@@H](COC(C)=O)O[C@H]1n1nc(SCc2ccccc2)nc1-c1cc2ccccc2[nH]1", "values": [
      {"measurement": "IC50", "setting": "HepG2", "value": 16.6, "unit": "µg/mL"},
      {"measurement": "IC50", "setting": "MCF7", "value": 15.9, "unit": "µg/mL"}
    ]},
    {"smiles": "OCCCn1nc(SCc2ccccc2)nc1-c1cc2ccccc2[nH]1", "values": [
      {"measurement": "IC50", "setting": "HepG2", "value": 11.5, "unit": "µg/mL"},
      {"measurement": "IC50", "setting": "MCF7", "value": 16.2, "unit": "µg/mL"}
    ]},
    {"smiles": "C=CCn1nc(-c2cc3ccccc3[nH]2)nc1SCc1ccccc1", "values": [
      {"measurement": "IC50", "setting": "HepG2", "value": 15.9, "unit": "µg/mL"},
      {"measurement": "IC50", "setting": "MCF7", "value": 15.5, "unit": "µg/mL"}
    ]},
    {"smiles": "c1ccc(CSc2nc(-c3cc4ccccc4[nH]3)n[nH]2)cc1", "values": [
      {"measurement": "IC50", "setting": "HepG2", "value": 3.58, "unit": "µg/mL"},
      {"measurement": "IC50", "setting": "MCF7", "value": 4.53, "unit": "µg/mL"}
    ]}
  ]
}
